The results in this text go back to article PMC11721541 (Journal of Lipid Research, 2024).

Series [1] concerns the target T1, human lipin 1α (Homo sapiens, UniProt Q14693).
T1 construct: His6 (C); made in house; host or cells: E. coli Rosetta2(DE3)pLysS, plasmid pGH322 (pET-28b(+) derivative)
T1 sequence (Q14693 1-890): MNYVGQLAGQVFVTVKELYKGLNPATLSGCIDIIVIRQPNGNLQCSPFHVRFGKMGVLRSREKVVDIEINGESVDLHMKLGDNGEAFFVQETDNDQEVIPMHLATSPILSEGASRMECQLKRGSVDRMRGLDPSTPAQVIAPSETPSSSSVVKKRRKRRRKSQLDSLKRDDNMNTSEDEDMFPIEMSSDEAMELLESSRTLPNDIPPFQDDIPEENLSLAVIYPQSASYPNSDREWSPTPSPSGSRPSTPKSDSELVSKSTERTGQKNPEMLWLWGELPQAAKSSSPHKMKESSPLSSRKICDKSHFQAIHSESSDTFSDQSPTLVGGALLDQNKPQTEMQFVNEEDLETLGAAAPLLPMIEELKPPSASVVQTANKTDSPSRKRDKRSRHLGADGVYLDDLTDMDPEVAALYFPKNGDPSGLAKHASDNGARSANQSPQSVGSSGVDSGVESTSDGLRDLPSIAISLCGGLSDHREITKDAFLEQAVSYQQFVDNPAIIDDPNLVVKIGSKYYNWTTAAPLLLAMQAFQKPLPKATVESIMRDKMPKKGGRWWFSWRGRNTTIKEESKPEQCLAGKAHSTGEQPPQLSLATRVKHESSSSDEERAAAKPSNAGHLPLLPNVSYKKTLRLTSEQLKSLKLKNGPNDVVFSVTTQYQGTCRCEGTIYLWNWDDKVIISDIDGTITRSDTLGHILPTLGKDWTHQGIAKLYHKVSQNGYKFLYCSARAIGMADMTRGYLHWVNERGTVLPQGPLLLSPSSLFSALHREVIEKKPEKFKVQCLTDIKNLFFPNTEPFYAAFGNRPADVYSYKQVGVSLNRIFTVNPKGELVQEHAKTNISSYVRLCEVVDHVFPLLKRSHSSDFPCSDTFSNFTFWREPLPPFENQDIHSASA
Put plainly: PAP assay, human lipin 1α. The class given is biochemical. The following applies: for IC50: unphosphorylated, from E. coli, PA 2.4 mol %. On the procedure:
(§1) PA dissolved in chloroform was dried in vacuo for 1 h. The dried PA was suspended in Triton X-100 to prepare Triton X-100/PA-mixed micelles ([88]). The mole percent of PA in the Triton X-100/PA-mixed micelle was calculated using the following formula: mol %PA = 100 × [PA (molar)]/([PA (molar)] + [Triton X-100 (molar)]). The total PA concentration in the Triton X-100/PA-mixed micelles was kept below 15 mol% to ensure that the structure of the PA-mixed micelles was similar to that of pure Triton X-100 micelles ([89], [90]).
(§2) PAP activity was measured at 30°C for 20 min by following the release of water-soluble ^32Pi from chloroform-soluble [^32P]PA (5,000–10,000 cpm/nmol) ([1], [88]). [^32P]PA was enzymatically synthesized from 1, 2-dioleoyl DAG and [γ-^32P]ATP with E. coli DAG kinase ([88]). Pah1-CC PAP activity was measured by following the formation of Pi from unlabeled PA using the malachite green-molybdate reagent ([4], [91]). The reaction mixture in a total volume of 100 μl contained 50 mM Tris-HCl (pH 7.5), 1 mM MgCl2, 10 mM 2-mercaptoethanol, 0.2 mM PA, 2 mM Triton X-100, and 50 ng purified enzyme. The enzyme assays were conducted in triplicate; the reactions were linear with time and protein concentration.
(§3) Each of the isoforms was heterologously expressed in E. coli, which allowed for their isolation in the unphosphorylated state ([4]).

Series [2] concerns the target T2, human lipin 1β (Homo sapiens, UniProt Q14693).
T2 construct: His6 (C); made in house; host or cells: E. coli Rosetta2(DE3)pLysS, plasmid pGH327 (pET-28b(+) derivative)
T2 sequence (Q14693 1-926 isoform Q14693-3): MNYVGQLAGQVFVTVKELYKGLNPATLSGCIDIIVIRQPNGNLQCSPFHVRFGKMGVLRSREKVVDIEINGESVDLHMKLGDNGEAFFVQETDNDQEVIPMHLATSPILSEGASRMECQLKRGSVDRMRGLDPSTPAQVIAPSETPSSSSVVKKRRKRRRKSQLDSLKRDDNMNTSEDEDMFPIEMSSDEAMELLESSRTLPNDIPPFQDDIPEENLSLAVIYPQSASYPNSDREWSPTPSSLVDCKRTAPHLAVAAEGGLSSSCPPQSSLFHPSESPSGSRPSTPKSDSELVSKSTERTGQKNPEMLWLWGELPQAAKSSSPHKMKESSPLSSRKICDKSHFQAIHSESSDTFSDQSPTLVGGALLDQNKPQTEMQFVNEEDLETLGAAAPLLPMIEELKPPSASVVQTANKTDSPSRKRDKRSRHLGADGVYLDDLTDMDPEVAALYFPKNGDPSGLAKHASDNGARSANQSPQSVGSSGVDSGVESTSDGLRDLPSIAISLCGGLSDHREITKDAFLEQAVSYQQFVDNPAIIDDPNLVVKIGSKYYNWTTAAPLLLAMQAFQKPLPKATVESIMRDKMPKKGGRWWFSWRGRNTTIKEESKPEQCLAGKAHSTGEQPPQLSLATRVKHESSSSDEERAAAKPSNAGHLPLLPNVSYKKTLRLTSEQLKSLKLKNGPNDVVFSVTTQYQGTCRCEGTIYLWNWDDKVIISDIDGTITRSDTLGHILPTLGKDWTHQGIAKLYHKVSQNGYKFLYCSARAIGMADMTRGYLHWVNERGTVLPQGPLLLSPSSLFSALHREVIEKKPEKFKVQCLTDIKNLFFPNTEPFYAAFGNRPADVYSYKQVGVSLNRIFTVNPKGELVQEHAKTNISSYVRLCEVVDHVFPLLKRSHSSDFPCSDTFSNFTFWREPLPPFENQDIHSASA
The series can be described thus: PAP assay, human lipin 1β. In kind it is biochemical. The following applies: unphosphorylated, from E. coli; PA 2.4 mol %. On the procedure:
as §1, §2, §3

The target in series [3] is T3, human lipin 1γ (Homo sapiens, UniProt Q14693).
T3 construct: His6 (C); made in house; host or cells: E. coli Rosetta2(DE3)pLysS, plasmid pGH321 (pET-28b(+) derivative)
T3 sequence (Q14693 1-916 isoform Q14693-4): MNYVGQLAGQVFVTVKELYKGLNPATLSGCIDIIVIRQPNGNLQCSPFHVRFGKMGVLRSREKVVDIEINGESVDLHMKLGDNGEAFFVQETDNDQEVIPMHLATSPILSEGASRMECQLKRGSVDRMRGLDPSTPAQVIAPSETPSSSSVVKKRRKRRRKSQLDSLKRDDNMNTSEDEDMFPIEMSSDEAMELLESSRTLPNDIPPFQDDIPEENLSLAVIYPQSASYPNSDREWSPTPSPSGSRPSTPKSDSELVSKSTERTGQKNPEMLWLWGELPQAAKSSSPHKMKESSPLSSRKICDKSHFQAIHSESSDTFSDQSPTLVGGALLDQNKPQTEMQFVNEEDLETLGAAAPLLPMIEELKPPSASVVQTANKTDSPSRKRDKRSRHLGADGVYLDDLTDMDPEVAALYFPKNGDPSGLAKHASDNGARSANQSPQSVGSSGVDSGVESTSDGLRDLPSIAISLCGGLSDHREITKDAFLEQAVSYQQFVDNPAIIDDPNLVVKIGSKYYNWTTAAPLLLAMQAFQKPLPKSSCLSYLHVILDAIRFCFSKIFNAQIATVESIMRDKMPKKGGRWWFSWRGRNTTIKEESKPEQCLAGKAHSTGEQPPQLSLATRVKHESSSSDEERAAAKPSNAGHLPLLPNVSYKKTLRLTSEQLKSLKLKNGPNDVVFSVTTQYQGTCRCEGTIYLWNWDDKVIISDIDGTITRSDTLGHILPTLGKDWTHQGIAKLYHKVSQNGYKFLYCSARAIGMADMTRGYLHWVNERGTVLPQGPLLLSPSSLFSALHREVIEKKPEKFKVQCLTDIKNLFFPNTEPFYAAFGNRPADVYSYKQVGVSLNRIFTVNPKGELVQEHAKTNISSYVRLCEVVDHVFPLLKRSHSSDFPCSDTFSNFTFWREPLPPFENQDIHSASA
The series can be described thus: PAP assay, human lipin 1γ. In kind it is biochemical. As to conditions: unphosphorylated, from E. coli; PA 2.4 mol %. As for the experimental part:
as §1, §2, §3

The test system of series [4] is WT S. cerevisiae cells (RS453). Put plainly: Lipid analysis ([2-14C]acetate labeling, TLC) in S. cerevisiae. The following applies: 163 μM, 12 h, SC-0.2% glucose.
Description: Lipids were extracted ([97]) from ∼ 8 × 10^7 cells and analyzed by one-dimensional TLC with silica gel 60 plates using the solvent system containing hexane/diethyl ether/glacial acetic acid (40:10:1, v/v) ([98]). Radiolabeled lipids were visualized by phosphorimaging with a Storm 860 Molecular Imager (GE Healthcare) and quantified with ImageQuant software using a standard curve of [2–^14C]acetate. The amounts of TAG and phospholipids were normalized to total lipids on TLC plates.
The radiolabeling was performed in the SC medium owing to the difficulty of [2–^14C]acetate incorporation into cells grown in the RPMI medium.
The subject of series [5] is pah1Δ mutant cells. The class given is cell-based, Saccharomyces cerevisiae. On the procedure:
(§4) The cell density was determined by measurement of A600 nm after a 48-h static incubation using a SpectraMax M2e microplate reader (Molecular Devices). […] The A600 nm readings were taken after 4 days of incubation.
For this experiment, we cultured the mutant in SC-0.2% glucose medium because of its growth defect in RPMI-0.2% glucose.
We reasoned that an overexpressed level of PAP activity would more readily rescue the inhibitory effect of the drug on the mutant growth.

For series [6], the system named is pah1Δ cells (SS1026) overexpressing Pah1 or Pah1-CC. The class given is cell-based, Saccharomyces cerevisiae. On the procedure: as §4
The subject of series [7] is HepG2 cells. Put plainly: Lipid analysis (TLC, charring) in HepG2 cells. The following applies: 10 μM, 18 h. The class given is cell-based, human.

Structures are written as SMILES.

In the case of `CC(C)NCC(O)COc1cccc2ccccc12` (stereo not shown) [propranolol], the IC50 was determined as 226 µM in series [1], 271 µM in series [2] and 227 µM in series [3].
On to `CN[C@H]1CC[C@@H](c2ccc(Cl)c(Cl)c2)c2ccccc21` [sertraline], for which the “decrease of TAG content” value in series [4] was determined as 2.2 fold. Moreover, the “increase of phospholipid content” value in series [4] was determined as 1.2 fold. Moreover, the “IC50 values for lipin 1 isoforms lower than those of propranolol” value in series [1] (lipin 1 α, β and γ isoforms together) is recorded as approximately 2 fold. The 50% inhibitory concentration (IC50) in series [1] amounted to 103 µM; in series [2] it was 108 µM; in series [3], 143 µM. For the same molecule, the “effect on growth of pah1Δ mutant” value in series [5] was “severe reduction in growth”. For the same molecule, the “effect on growth of cells expressing Pah1” value in series [6] is “mild inhibition”. Further, the “reduction in the TAG level” value in series [7] amounted to 2 fold. In series [7] (vs DMSO vehicle), the “growth of cells during the incubation period” value is listed as “did not differ from that of the control”.
